Patent publication EP4722212A1, “NOVEL COMPOUND FOR INHIBITING PROTEIN KINASES AND PHARMACEUTICAL COMPOSITION COMPRISING SAME” (Magicbullettherapeutics Co., Ltd., priority 2023, dated 2024)
Read-outs that look alike come from different tables or passages of the source.

Tests used:
Assay in all cases: Kinase panel
Type in all cases: biochemical
ITK = ITK (Homo sapiens, UniProt Q08881); conditions: read-out: residual enzyme activity
Procedure, shortened: (§1)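 Residual enzyme activity is given for kinases screened biochemically with compound at a fixed 1 µM. Kinases showing ≤40% residual activity (≥60% inhibition) were identified as inhibited.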

LIMK1 = LIMK1 (Homo sapiens, UniProt P53667); conditions: LIMK1, 1 µM; read-out: residual enzyme activity
Procedure, shortened: as §1

DYRK3 = DYRK3 (Homo sapiens, UniProt O43781); conditions: DYRK3, 1 µM; read-out: residual enzyme activity
Procedure, shortened: as §1

MINK/MINK1 = MINK/MINK1 (Homo sapiens, UniProt Q8N4C8); conditions: MINK/MINK1, 1 µM; read-out: residual enzyme activity
Procedure, shortened: as §1

HIPK2 = HIPK2 (Homo sapiens, UniProt Q9H2X6); conditions: HIPK2, 1 µM; read-out: residual enzyme activity
Procedure, shortened: as §1

MEK5 = MEK5 (Homo sapiens, UniProt Q13163); conditions: MEK5, 1 µM; read-out: residual enzyme activity
Procedure, shortened: as §1

AKT1 = AKT1 (Homo sapiens, UniProt P31749); conditions: AKT1, 1 µM; read-out: residual enzyme activity
Procedure, shortened: as §1

WNK3 = WNK3 (Homo sapiens, UniProt Q9BYP7); conditions: WNK3, 1 µM; read-out: residual enzyme activity
Procedure, shortened: as §1

NEK6 = NEK6 (Homo sapiens, UniProt Q9HC98); conditions: NEK6, 1 µM; read-out: residual enzyme activity
Procedure, shortened: as §1

STK32B/YANK2 = STK32B/YANK2 (Homo sapiens, UniProt Q9NY57); conditions: STK32B/YANK2, 1 µM; read-out: residual enzyme activity
Procedure, shortened: as §1

KSR1 = KSR1 (Homo sapiens, UniProt Q8IVT5); conditions: KSR1, 1 µM; read-out: residual enzyme activity
Procedure, shortened: as §1

PKCD = PKCD (Homo sapiens, UniProt Q05655); conditions: read-out: residual enzyme activity
Procedure, shortened: as §1

EGFR = EGFR (Homo sapiens, UniProt P00533); conditions: read-out: residual enzyme activity
Procedure, shortened: as §1

TYK1/LTK = TYK1/LTK (Homo sapiens, UniProt P29376); conditions: read-out: residual enzyme activity
Procedure, shortened: as §1

CDK14/CYCLIN Y (PFTK1) = CDK14/CYCLIN Y (PFTK1) (Homo sapiens, UniProt O94921); conditions: read-out: residual enzyme activity
Procedure, shortened: as §1

EPHA2 = EPHA2 (Homo sapiens, UniProt P29317); conditions: EPHA2, 1 µM; read-out: residual enzyme activity
Procedure, shortened: as §1

IR = IR (Homo sapiens, UniProt P06213); conditions: read-out: residual enzyme activity
Procedure, shortened: as §1

CDK7/CYCLIN H = CDK7/CYCLIN H (Homo sapiens, UniProt P50613); conditions: read-out: residual enzyme activity
Procedure, shortened: as §1

TRKA = TRKA (Homo sapiens, UniProt P04629); conditions: read-out: residual enzyme activity
Procedure, shortened: as §1

EPHB4 = EPHB4 (Homo sapiens, UniProt P54760); conditions: EPHB4, 1 µM; read-out: residual enzyme activity
Procedure, shortened: as §1

TGFBR2 = TGFBR2 (Homo sapiens, UniProt P37173); conditions: TGFBR2, 1 µM; read-out: residual enzyme activity
Procedure, shortened: as §1

EPHA4 = EPHA4 (Homo sapiens, UniProt P54764); conditions: EPHA4, 1 µM; read-out: residual enzyme activity
Procedure, shortened: as §1

NEK11 = NEK11 (Homo sapiens, UniProt Q8NG66); conditions: NEK11, 1 µM; read-out: residual enzyme activity
Procedure, shortened: as §1

ERK1 = ERK1 (Homo sapiens, UniProt P27361); conditions: ERK1, 1 µM; read-out: residual enzyme activity
Procedure, shortened: as §1

CK2A = CK2A (Homo sapiens, UniProt P68400); conditions: read-out: residual enzyme activity
Procedure, shortened: as §1

SBK1 = SBK1 (Homo sapiens, UniProt Q52WX2); conditions: SBK1, 1 µM; read-out: residual enzyme activity
Procedure, shortened: as §1

TAOK1 = TAOK1 (Homo sapiens, UniProt Q7L7X3); conditions: TAOK1, 1 µM; read-out: residual enzyme activity
Procedure, shortened: as §1

FGFR3 = FGFR3 (Homo sapiens, UniProt P22607); conditions: FGFR3, 1 µM; read-out: residual enzyme activity
Procedure, shortened: as §1

EPHAS = EPHAS (Homo sapiens, UniProt P54756); conditions: read-out: residual enzyme activity
Procedure, shortened: as §1

CDK3/CYCLIN E = CDK3/CYCLIN E (Homo sapiens, UniProt Q00526); conditions: read-out: residual enzyme activity
Procedure, shortened: as §1

CDK5/P25 = CDK5/P25 (Homo sapiens, UniProt Q00535); conditions: CDK5/P25, 1 µM; read-out: residual enzyme activity
Procedure, shortened: as §1

TAK1 = TAK1 (Homo sapiens, UniProt O43318); conditions: TAK1, 1 µM; read-out: residual enzyme activity
Procedure, shortened: as §1

WEE1 = WEE1 (Homo sapiens, UniProt P30291); conditions: WEE1, 1 µM; read-out: residual enzyme activity
Procedure, shortened: as §1

CDK9/CYCLIN T2 = CDK9/CYCLIN T2 (Homo sapiens, UniProt P50750); conditions: CDK9/cyclin T2, 1 µM; read-out: residual enzyme activity
Procedure, shortened: as §1

Measured: remaining activity at 1 µM

EPHA2, sequence (P29317 24-976, species assumed): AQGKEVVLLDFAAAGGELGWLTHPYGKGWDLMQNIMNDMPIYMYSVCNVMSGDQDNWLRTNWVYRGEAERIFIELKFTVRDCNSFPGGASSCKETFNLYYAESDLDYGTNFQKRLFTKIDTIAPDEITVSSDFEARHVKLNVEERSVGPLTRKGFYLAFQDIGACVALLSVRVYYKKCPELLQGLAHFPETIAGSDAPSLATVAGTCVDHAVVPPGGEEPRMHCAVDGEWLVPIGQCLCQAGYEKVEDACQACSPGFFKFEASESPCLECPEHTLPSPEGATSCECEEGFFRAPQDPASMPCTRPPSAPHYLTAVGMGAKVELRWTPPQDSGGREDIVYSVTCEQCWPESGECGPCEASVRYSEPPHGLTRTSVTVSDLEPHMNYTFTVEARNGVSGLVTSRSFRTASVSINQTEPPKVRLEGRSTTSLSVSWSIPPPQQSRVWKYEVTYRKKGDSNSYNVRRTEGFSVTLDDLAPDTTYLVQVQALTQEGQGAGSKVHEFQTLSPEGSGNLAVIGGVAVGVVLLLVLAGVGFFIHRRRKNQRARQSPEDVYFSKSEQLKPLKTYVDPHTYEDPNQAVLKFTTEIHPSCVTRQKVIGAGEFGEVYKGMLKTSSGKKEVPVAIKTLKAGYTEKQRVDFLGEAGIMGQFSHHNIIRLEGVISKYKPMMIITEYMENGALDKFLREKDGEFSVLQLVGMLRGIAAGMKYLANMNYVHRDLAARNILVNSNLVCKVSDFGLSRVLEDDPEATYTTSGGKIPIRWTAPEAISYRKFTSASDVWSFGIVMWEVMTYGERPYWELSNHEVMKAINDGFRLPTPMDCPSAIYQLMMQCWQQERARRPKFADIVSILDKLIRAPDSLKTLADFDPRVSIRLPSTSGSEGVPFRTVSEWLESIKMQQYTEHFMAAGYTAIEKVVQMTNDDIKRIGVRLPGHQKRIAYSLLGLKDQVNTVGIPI
PKCD, sequence (Q05655 whole entry, species assumed): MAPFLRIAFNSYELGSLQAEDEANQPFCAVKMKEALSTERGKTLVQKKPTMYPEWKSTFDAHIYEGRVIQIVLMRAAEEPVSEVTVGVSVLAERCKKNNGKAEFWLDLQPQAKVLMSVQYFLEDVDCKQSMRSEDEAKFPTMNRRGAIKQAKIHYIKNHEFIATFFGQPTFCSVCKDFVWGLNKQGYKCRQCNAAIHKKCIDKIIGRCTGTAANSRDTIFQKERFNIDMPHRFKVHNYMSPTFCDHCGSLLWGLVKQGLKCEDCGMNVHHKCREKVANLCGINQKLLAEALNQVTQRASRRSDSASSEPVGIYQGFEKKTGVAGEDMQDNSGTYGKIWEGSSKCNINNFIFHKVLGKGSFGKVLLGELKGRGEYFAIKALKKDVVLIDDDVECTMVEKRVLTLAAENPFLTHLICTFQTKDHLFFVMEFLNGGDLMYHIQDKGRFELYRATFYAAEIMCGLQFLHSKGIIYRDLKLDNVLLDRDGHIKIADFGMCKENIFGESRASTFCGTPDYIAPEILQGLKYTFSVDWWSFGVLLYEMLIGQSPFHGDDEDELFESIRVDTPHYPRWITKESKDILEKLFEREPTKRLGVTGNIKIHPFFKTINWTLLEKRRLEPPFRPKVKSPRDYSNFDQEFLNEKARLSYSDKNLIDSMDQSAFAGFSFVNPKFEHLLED
CDK3/CYCLIN E, sequence (Q00526 whole entry, species assumed): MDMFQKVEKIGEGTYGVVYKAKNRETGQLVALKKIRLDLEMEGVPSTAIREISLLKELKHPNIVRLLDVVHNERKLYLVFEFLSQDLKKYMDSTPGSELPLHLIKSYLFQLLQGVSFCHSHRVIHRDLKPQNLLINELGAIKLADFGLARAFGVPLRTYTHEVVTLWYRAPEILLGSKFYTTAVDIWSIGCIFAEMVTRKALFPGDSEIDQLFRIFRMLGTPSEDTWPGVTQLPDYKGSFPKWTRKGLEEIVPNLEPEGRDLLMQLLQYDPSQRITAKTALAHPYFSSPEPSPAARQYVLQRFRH
CDK3/CYCLIN E, sequence (P24864 whole entry partner, species assumed): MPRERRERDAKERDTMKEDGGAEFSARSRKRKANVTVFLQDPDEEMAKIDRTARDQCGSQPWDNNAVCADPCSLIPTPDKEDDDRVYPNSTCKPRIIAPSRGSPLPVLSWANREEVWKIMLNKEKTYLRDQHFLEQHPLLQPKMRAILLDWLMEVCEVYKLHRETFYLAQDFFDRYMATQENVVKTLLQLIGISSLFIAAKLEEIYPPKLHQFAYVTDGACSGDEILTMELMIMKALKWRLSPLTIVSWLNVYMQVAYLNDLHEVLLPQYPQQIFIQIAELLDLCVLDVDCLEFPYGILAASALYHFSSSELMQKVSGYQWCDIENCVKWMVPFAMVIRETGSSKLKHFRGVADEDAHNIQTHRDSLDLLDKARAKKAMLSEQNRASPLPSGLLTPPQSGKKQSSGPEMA
CDK9/CYCLIN T2, sequence (P50750 whole entry, species assumed): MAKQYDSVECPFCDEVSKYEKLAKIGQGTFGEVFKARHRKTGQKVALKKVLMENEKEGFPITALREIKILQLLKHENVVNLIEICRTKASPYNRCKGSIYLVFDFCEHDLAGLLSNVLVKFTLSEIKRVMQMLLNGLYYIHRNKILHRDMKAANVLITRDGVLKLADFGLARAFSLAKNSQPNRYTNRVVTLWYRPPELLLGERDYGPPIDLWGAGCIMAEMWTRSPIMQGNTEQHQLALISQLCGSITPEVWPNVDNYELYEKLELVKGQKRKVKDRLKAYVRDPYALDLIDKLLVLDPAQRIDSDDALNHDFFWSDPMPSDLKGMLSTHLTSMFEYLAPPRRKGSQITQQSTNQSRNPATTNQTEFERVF
CDK9/CYCLIN T2, sequence (O60583 whole entry partner, species assumed): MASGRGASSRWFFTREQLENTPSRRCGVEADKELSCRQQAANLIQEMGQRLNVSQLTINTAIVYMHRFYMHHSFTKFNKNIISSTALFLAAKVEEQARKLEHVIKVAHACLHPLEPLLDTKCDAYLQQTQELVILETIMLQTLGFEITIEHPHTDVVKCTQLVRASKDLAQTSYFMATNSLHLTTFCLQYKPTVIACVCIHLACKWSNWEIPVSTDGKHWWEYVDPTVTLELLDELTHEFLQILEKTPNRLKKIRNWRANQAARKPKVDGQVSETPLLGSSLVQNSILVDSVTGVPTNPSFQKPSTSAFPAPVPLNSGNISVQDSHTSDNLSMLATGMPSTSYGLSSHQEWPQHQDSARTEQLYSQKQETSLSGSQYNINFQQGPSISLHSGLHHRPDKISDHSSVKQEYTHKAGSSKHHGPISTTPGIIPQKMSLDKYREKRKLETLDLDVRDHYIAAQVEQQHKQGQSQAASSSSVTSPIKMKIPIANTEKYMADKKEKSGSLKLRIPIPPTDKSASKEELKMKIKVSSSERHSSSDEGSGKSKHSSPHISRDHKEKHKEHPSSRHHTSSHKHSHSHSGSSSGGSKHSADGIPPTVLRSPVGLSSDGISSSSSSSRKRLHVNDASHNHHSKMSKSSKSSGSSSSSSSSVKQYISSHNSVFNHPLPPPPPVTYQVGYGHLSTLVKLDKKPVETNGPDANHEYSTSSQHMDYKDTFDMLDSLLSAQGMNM
STK32B/YANK2, sequence (Q9NY57 whole entry): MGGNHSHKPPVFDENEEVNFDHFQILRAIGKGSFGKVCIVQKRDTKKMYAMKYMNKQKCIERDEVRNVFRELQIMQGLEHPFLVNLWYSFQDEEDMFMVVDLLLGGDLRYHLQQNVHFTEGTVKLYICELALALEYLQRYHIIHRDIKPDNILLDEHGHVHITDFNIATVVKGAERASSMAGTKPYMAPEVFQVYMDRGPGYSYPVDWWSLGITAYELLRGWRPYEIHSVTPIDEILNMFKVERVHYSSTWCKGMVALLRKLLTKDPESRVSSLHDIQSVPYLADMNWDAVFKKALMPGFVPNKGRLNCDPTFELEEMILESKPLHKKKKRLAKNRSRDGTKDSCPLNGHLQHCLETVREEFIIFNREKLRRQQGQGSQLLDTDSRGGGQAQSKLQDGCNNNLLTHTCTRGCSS
NEK6, sequence (Q9HC98 whole entry, species assumed): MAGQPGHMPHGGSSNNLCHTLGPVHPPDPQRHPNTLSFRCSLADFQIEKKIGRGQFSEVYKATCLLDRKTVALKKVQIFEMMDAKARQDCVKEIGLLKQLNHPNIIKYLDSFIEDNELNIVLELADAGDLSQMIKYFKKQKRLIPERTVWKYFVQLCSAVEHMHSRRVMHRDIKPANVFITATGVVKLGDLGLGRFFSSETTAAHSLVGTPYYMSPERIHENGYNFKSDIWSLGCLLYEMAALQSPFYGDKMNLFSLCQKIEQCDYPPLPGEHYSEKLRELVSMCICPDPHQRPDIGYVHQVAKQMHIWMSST
LIMK1, sequence (P53667 whole entry, species assumed): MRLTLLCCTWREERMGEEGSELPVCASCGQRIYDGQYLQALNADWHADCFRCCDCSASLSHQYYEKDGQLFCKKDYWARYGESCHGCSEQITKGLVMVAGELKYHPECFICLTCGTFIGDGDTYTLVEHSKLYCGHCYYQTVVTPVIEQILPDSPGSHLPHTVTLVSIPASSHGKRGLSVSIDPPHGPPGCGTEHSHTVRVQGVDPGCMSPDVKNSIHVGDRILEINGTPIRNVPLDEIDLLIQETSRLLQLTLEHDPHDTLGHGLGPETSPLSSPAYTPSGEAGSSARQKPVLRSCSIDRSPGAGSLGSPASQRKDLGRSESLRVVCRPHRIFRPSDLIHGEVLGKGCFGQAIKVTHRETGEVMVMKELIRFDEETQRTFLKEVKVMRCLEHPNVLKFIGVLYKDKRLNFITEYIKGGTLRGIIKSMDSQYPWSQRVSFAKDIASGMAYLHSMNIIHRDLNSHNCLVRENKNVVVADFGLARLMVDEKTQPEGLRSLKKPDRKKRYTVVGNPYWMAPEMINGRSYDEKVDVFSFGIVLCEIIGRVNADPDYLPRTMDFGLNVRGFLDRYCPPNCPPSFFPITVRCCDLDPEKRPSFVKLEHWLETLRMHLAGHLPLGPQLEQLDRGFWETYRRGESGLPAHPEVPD

Cc1cn(-c2cc(C(=O)Nc3ccc(C)c(N4Cc5cnc(NC6CC6)nc5C5(CC5)C4=O)c3)cc(C(F)(F)F)c2)cn1 [Compound 8, N-(3-(2'-(cyclopropylamino)-7'-oxo-5'H-spiro[cyclopropane-1,8'-pyrido[4,3-d]pyrimidine]-6'(7'H)-yl)-4-methylphenyl)-3-(4-methyl-1H-imidazol-1-yl)-5-(trifluoromethyl)benzamide]
≤ 40%: LIMK1 | MINK/MINK1 | MEK5 | STK32B/YANK2 | EGFR | TYK1/LTK | EPHA2 | TRKA | EPHB4 | EPHA4 | TAOK1 | FGFR3 | EPHAS; EPHAS (row 107), 1 µM | TAK1
> 40%: ITK | DYRK3 | HIPK2 | AKT1 | WNK3 | NEK6 | KSR1 | PKCD | CDK14/CYCLIN Y (PFTK1) | IR | CDK7/CYCLIN H | TGFBR2 | NEK11 | ERK1 | CK2A; CK2A | SBK1 | CDK3/CYCLIN E | CDK5/P25 | WEE1 | CDK9/CYCLIN T2

Cc1ccc(Nc2ncc3c(n2)C2(CC2)C(=O)N(c2cc(NC(=O)c4cccc(C(F)(F)F)c4)ccc2C)C3)cn1 [Compound 51, N-(4-methyl-3-(2'-((6-methylpyridin-3-yl)amino)-7'-oxo-5'H-spiro[cyclopropane-1,8'-pyrido[4,3-d]pyrimidine]-6'(7'H)-yl)phenyl)-3-(trifluoromethyl)benzamide]
> 40%: ITK | DYRK3 | HIPK2 | AKT1 | WNK3 | NEK6 | KSR1 | PKCD | TYK1/LTK | CDK14/CYCLIN Y (PFTK1) | IR | CDK7/CYCLIN H | TGFBR2 | ERK1 | CK2A; CK2a | SBK1 | CDK3/CYCLIN E | CDK5/P25 | WEE1 | CDK9/CYCLIN T2
≤ 40%: LIMK1 | MINK/MINK1 | MEK5 | STK32B/YANK2 | EGFR | EPHA2 | TRKA | EPHB4 | EPHA4 | NEK11 | TAOK1 | FGFR3 | EPHAS; EPHA5, 1 µM | TAK1
